Measured values from PMC11673046, “Characterization of a Pyranose Oxidase/C-Glycoside Oxidase from Microbacterium sp. 3H14, Belonging to the Unexplored Clade II of Actinobacterial POx/CGOx” (Biomolecules, 2024).
Read-outs that look alike come from different tables or passages of the source.

Assays:
Assay type in all cases: biochemical, Microbacterium sp. 3H14
[1] = test system: MPOx
[2] = molecular target: MPOx; remark: listed apart in the source
[3] = test system: MPOx; remark: listed apart in the source

Row | SMILES | Km [1] [µM] | Ki [2] [µM] | Km [3] [µM]
1 | O=C(CCc1ccc(O)c(O)c1)c1c(O)cc(O)c([C@@H]2O[C@H](CO)[C@@H](O)[C@H](O)[C@H]2O)c1O [Aspalathin] | 85 ± 14 | 300 ± 50 | 
2 | OC[C@H]1OC(O)[C@H](O)[C@@H](O)[C@@H]1O (stereo partly drawn) [D-glucose] |  |  | 660 ± 30
3 | OC1OC[C@@H](O)[C@H](O)[C@H]1O (stereo partly drawn) [D-xylose] |  |  | 19000 ± 1000
4 | O=C(CCc1ccc(O)cc1)c1c(O)cc(O)cc1O[C@@H]1O[C@H](CO)[C@@H](O)[C@H](O)[C@H]1O [Phlorizin] | 57 ± 6 | 480 ± 50 | 
